Experimental data taken from patent US12372525B2 (priority 2013, dated 2025).

Experiments:
seasonal flu = settings: in vivo; cited from earlier work
[1] = biological target: purified influenza H3N2 neuraminidase (Influenza A virus, UniProt O91745); format: biochemical
A/Perth/211/2001 WT = format: biochemical

Chain of purified influenza H3N2 neuraminidase (O91745 whole entry, looked up): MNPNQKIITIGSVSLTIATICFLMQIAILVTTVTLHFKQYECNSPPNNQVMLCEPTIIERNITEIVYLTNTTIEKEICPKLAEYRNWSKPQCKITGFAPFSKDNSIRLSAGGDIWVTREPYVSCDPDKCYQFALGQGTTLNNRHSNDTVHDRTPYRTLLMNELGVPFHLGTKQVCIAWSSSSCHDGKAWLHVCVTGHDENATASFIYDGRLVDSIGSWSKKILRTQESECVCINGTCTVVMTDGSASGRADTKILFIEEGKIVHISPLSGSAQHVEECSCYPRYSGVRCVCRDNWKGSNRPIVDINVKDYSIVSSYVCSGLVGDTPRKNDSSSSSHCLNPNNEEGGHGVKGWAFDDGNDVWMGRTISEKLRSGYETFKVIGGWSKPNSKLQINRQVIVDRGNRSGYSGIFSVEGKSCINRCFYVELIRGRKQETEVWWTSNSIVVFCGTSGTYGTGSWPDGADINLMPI

CC(=O)N[C@H]1[C@H]([C@H](O)[C@H](O)CO)OC(C(=O)O)=C[C@@H]1N=C(N)N [Zanamivir]
effective in prophylaxis against seasonal flu (seasonal flu): 80%

CC(=O)NC1C(O)CC(Oc2ccc(CCC(=O)C(F)(F)F)cc2)(C(=O)[O-])OC1C(O)C(O)CO.[Na+] (stereo not shown) [NANA-CF3]
level of detection (LOD) of neuraminidase with this substrate [1]: about 10 pM

CCOC(=O)C1=C[C@@H](OC(CC)CC)[C@H](NC(C)=O)[C@@H](N)C1 [Oseltamivir]
Inhibition value (A/Perth/211/2001 WT): 1.48/1.34 | effective in prophylaxis against seasonal flu (seasonal flu): 80%
